Test results reported in patent US20160257697A1, “THIOPHENE-SUBSTITUTED TETRACYCLIC COMPOUNDS AND METHODS OFUSE THEREOF FOR THE TREATMENT OF VIRAL DISEASES” (priority 2013, published 2016).
pIC50: −log10 of the molar value. Like-named read-outs stand apart in the source and are kept apart here.

Legend:
Assay in all cases: microbe, parasite or virus in culture
Assay type in all cases: cell-based, Hepatitis C virus (HCV)
Settings in all cases: Replicon Assay A
[1] = system: HCV replicon 1AY93H
Procedure, shortened: (§1)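 Read-out is replicon RNA per cell by real-time RT-PCR, normalised to cyclophilin mRNA amplified in the same well. Cells were exposed to compound for 3 days at 2000 cells/well in medium with 5% fetal bovine serum and 0.5% DMSO.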

[2] = system: HCV replicon 2B
Procedure, shortened: as §1

[3] = system: HCV replicon 1A
Procedure, shortened: as §1

[4] = read-out: 1A Y93H IC50, HCV replicon 1A Y93H
[5] = read-out: 2B IC50, HCV replicon 2B
[6] = read-out: 1A Y93H IC50, replicon 1AY93H

`COC(=O)N[C@H](C(=O)N1C[C@H](F)C[C@H]1c1ncc(-c2ccc3c(c2)OC(c2ccc(C)s2)n2c-3cc3cc(-c4cnc([C@@H]5C[C@H]6C[C@H]6N5C(=O)[C@@H](NC(=O)OC)C(C)C)[nH]4)ccc32)[nH]1)C(C)C` (single isomer, unassigned) [Compound 706] gave a pIC50 [1, 4] of 8.61, a pIC50 [2, 5] of 8.34 and a pIC50 ([3]; HCV replicon 1A) of 10.64.
In the case of `COC(=O)NC(C(=O)N1CCC[C@H]1c1ncc(-c2cc(F)c3c(c2)OC(c2ccc(C4CC4)s2)n2c-3cc3cc(-c4cnc([C@@H]5C[C@H]6C[C@H]6N5C(=O)[C@@H](NC(=O)OC)C(C)C)[nH]4)ccc32)[nH]1)C(C)(C)F` (single isomer, unassigned) [Compound 98], the pIC50 [1, 6] was 10.22, the IC50 ([2]; Hepatitis C virus, read-out: 2B IC50 (nM), replicon 2B) was 2.16 nM and the pIC50 ([3]; replicon 1A) was 11.96.
For `CCc1ccc(C2Oc3cc(-c4c[nH]c([C@@H]5CCCN5C(=O)[C@@H](NC(=O)OC)C(C)C)n4)ccc3-c3cc4c(F)c(-c5c[nH]c([C@@H]6CCCN6C(=O)C(NC(=O)OC)C6C[C@@H](C)O[C@@H](C)C6)n5)ccc4n32)s1` (single isomer, unassigned) [Compound 360], the pIC50 [1, 6] was 8.45, the pIC50 ([2]; read-out: 2B IC50, replicon 2B) was 8.60 and the pIC50 ([3]; Hepatitis C virus, replicon 1A) was 11.60.
`COC(=O)N[C@H](C(=O)N1CCC[C@H]1c1ncc(-c2cc(F)c3c(c2)OC(c2sc(C4CC4)cc2F)n2c-3cc3cc(-c4cnc([C@@H]5CCCN5C(=O)[C@@H](NC(=O)OC)C(C)C)[nH]4)ccc32)[nH]1)C(C)C` (single isomer, unassigned) [Compound 65] showed a pIC50 [1, 6] of 8.52, a pIC50 ([2]; read-out: 2B IC50, replicon 2B) of 8.44 and a pIC50 ([3]; Hepatitis C virus, replicon 1A) of 11.80.
`CCN(CC)[C@@H](C(=O)N1C[C@H](F)C[C@H]1c1nc(-c2ccc3c(c2)cc2n3C(c3cc(C)c(C)s3)Oc3cc(-c4c[nH]c([C@@H]5C[C@@H](F)CN5C(=O)[C@@H](NC(=O)OC)C(C)C)n4)ccc3-2)c[nH]1)c1ccccc1` (mixture of isomers) [Compound 724] showed a pIC50 ([1]; Hepatitis C virus, read-out: 1A Y93H IC50, HCV replicon 1A Y93H) of 9.43, a pIC50 ([2]; Hepatitis C virus, read-out: 2B IC50, HCV replicon 2B) of 7.82 and a pIC50 ([3]; Hepatitis C virus, HCV replicon 1A) of 10.20.
`COC(=O)N[C@H](C(=O)N1CCC[C@H]1c1ncc(-c2cc(F)c3c(c2)OC(c2scc4c2OCCO4)n2c-3cc3cc(-c4cnc([C@@H]5CCCN5C(=O)[C@@H](NC(=O)OC)C(C)C)[nH]4)ccc32)[nH]1)C(C)C` (single isomer, unassigned) [Compound 524] gave a pIC50 [1, 4] of 7.84, a pIC50 [2, 5] of 8.33 and a pIC50 ([3]; HCV replicon 1A) of 11.12.
`CCc1ccc(C2Oc3cc(-c4cnc([C@@H]5CCCN5C(=O)[C@@H](NC(=O)OC)C(C)C)[nH]4)cc(F)c3-c3cc4cc(-c5cnc([C@@H]6CCCN6C(=O)C(NC(=O)OC)C6CCOC(C)(C)C6)[nH]5)ccc4n32)s1` (single isomer, unassigned) [Compound 147] was tested, and the pIC50 [1, 6] was 9.37, the pIC50 ([2]; read-out: 2B IC50, replicon 2B) was 9.21 and the pIC50 ([3]; replicon 1A) was 11.60.
`COC(=O)N[C@H](C(=O)N1C[C@H](F)C[C@H]1c1nc(-c2ccc3c(c2)OC(c2ccc(C)s2)n2c-3cc3cc(-c4c[nH]c([C@@H]5C[C@H]6C[C@H]6N5C(=O)[C@@H](NC(=O)OC)C5CCOCC5)n4)ccc32)c[nH]1)C1CCOCC1` (single isomer, unassigned) [Compound 729] gave a pIC50 [1, 4] of 9.66, a pIC50 [2, 5] of 10.47 and a pIC50 ([3]; HCV replicon 1A) of 10.55.
`CCc1ccc(C2Oc3cc(-c4cnc([C@@H]5CCCN5C(=O)C(NC(=O)OC)C5CCOC(C)(C)C5)[nH]4)cc(F)c3-c3cc4cc(-c5cnc([C@@H]6CCCN6C(=O)[C@@H](NC(=O)OC)C(C)C)[nH]5)ccc4n32)s1` (single isomer, unassigned) [Compound 158] was tested, and the pIC50 [1, 6] was 8.97, the pIC50 ([2]; read-out: 2B IC50, replicon 2B) was 9.37 and the pIC50 ([3]; replicon 1A) was 11.48.
With `CCc1ccc(C2Oc3cc(-c4cnc([C@@H]5CCCN5C(=O)[C@@H](NC(=O)OC)C(C)C)[nH]4)cc(F)c3-c3cc4cc(-c5cnc([C@@H]6CCCN6C(=O)C(NC(=O)OC)C6C[C@@H](C)O[C@@H](C)C6)[nH]5)ccc4n32)s1` (single isomer, unassigned) [Compound 142] the pIC50 [1, 6] was 9.60, the pIC50 ([2]; read-out: 2B IC50, replicon 2B) was 9.32 and the pIC50 ([3]; replicon 1A) was 11.70.
With `COC(=O)NC(C(=O)N1CCC[C@H]1c1ncc(-c2ccc3c(c2)cc2n3C(c3ccc(C(C)C)s3)Oc3cc(-c4cnc([C@@H]5CCCN5C(=O)[C@@H](NC(=O)OC)C(C)C)[nH]4)cc(F)c3-2)[nH]1)C1CCOC(C)(C)C1` (single isomer, unassigned) [Compound 238] the pIC50 [1, 6] was 8.51, the pIC50 ([2]; read-out: 2B IC50, replicon 2B) was 8.15 and the pIC50 ([3]; replicon 1A) was 9.89.
Compound `[2H]C(C)(C)C(NC(=O)OC)C(=O)N1CCC[C@H]1c1ncc(-c2cc(F)c3c(c2)OC(c2ccc(C4CC4)s2)n2c-3cc3cc(-c4cnc([C@@H]5CCCN5C(=O)[C@@H](NC(=O)OC)C(C)C)[nH]4)ccc32)[nH]1` (single isomer, unassigned) [Compound 32] has a pIC50 [1, 6] of 8.85, a pIC50 ([2]; read-out: 2B IC50, replicon 2B) of 8.22 and a pIC50 ([3]; replicon 1A) of 11.89.
